Legend:
[1] = target: T1, recombinant human 5-HT6 receptor (Homo sapiens, UniProt P50406); test: Radioligand binding studies, 5-HT6 ligand affinity by competing for binding of [3H]LSD; conditions: [3H]LSD competition; membranes of HEK293 cells stably expressing the receptor; pH 7.4, 37° C., 75 min; duplicate determinations; read-out: pKi for 5-HT6 (converted)
T1 construct: expressed in transfected cells; membranes)
Method: The binding activity of compounds of this invention in vitro was determined as follows. Duplicate determinations of 5-HT6 ligand affinity were made by competing for binding of [^3H]LSD in cell membranes derived from HEK293 cells stably expressing recombinant human 5-HT6 receptor. Duplicate determinations of 5-HT2A ligand affinity were made by competing for binding of [^3H]Ketanserin (3-(2-(4-(4-fluorobenzoyl)piperidinol)ethyl)-2,4(1H,3H)-quinazolinedione) in cell membranes derived from CHO-K1 cells stably expressing recombinant human 5-HT2A receptor. Membranes were prepared from HEK 293 cell lines by the method described by Monsma et al., Molecular Pharmacology, Vol. 43 pp. 320-327 (1993), and from CHO-K^1 cell lines as described by Bonhaus et al., Br J. Pharmacol. June; 115(4):622-8 (1995).
For estimation of affinity at the 5-HT6 receptor, all determinations were made in assay buffer containing 50 mM Tris-HCl, 10 mM MgSO4, 0.5 mM EDTA, 1 mM ascorbic acid, pH 7.4 at 37° C., in a 250 microliter reaction volume. For estimation of affinity at the 5-HT2A receptor all determinations were made in assay buffer containing 50 mM Tris-HCl, 5 mM ascorbic acid, 4 mM CaCl2, pH 7.4 at 32° C., in a 250 microliter reaction volume.
Assay tubes containing [^3H] LSD or [^3H]Ketanserin (5 nM), competing ligand, and membrane were incubated in a shaking water bath for 75 min. at 37° C. (for 5-HT6) or 60 min. at 32° C. (for 5-HT2A), filtered onto Packard GF-B plates (pre-soaked with 0.3% PEI) using a Packard 96 well cell harvester and washed 3 times in ice cold 50 mM Tris-HCl. Bound [^3H] LSD or [^3H]Ketanserin were determined as radioactive counts per minute using Packard TopCount.
Displacement of [^3H]LSD or [^3H]Ketanserin from the binding sites was quantified by fitting concentration-binding data to a 4-parameter logistic equation:
[formula] where Hill is the Hill slope, [ligand] is the concentration of competing radioligand and IC50 is the concentration of radioligand producing half-maximal specific binding of radioligand. […]

T1 sequence (P50406 whole entry): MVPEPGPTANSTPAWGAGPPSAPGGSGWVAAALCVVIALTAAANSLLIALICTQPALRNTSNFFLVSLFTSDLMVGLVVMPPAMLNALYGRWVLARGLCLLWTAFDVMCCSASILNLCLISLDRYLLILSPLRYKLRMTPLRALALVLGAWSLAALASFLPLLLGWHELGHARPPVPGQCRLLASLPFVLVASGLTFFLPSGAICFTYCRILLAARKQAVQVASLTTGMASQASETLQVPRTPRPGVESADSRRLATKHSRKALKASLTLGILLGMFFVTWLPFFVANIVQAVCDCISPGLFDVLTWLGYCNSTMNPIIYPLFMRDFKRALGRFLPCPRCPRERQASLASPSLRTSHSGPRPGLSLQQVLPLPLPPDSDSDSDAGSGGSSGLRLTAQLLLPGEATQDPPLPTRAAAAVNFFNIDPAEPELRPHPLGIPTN

Row | melting point [°C] | Ki [1] [nM] | SMILES
1 | 131.9 to 132.6 | – | NC(=O)[C@@H]1CCCc2cc(Sc3cccc(F)c3)ccc21 [Example 6, (R)-6-(3-Fluoro-phenylsulfanyl)-1,2,3,4-tetrahydro-naphthalene-1-carboxylic acid amide]
2 | 152.5 to 153.8 | 0.178 | CC(=O)NC[C@@H]1CCCc2cc(S(=O)(=O)c3ccccc3)cc(F)c21 [N-((R)-6-Benzenesulfonyl-8-fluoro-1,2,3,4-tetrahydro-naphthalen-1-ylmethyl)-acetamide]
3 | – | 0.1 | NC(=O)NC[C@@H]1CCCc2cc(S(=O)(=O)c3cccc(F)c3)ccc21 [[(R)-6-(3-Fluoro-phenylsulfonyl)-1,2,3,4-tetrahydro-naphthalen-1-ylmethyl]-urea]
4 | 193.5 to 194.4 | 0.158 | NC(=O)NC[C@@H]1CCCc2cc(S(=O)(=O)c3cccc(F)c3)cc(F)c21 [[(R)-8-Fluoro-6-(3-fluoro-benzenesulfonyl)-1,2,3,4-tetrahydro-naphthalen-1-ylmethyl]-urea]

Reference: patent US9365494B2, “Process for synthesis of amino-methyl tetralin derivatives” (Roche Palo Alto LLC, priority 2008, dated 2016)
